Experiments:
Format in all cases: cell-based, human
NHEK [1] = test: Semi-quantitative RT-PCR of SS-A/Ro and SS-B/La mRNA; details: 100 uM EGCG, different times
Experimental: (§1) Cell treatment: ECCG was dissolved in cell culture media as a 50 mM stock immediately before use. Exponentially growing NS-SV-AC cells were incubated with 100 μM ECCG for various time periods in the growth media described above, and then were either extracted for total RNA or cell lysates prior to RT-PCR or Western blots.
(§2) Total RNA was extracted using an RNeasy total RNA isolation system (QIAGEN, Valentia, Calif.) RT reactions and PCR reactions were performed according to the manufacturer's protocol (Super Array Bioscience Corp). For amplification, the following pair of primers was used,
(§3) Amplification was started by heating for 1.5 min at 94° C., followed by 30 cycles for 52 kD SSA/Ro. 25 cycles for GAPDH and 25 cycles for SSB/La, each cycle consisting of 15
(§4) second at 94° C., 30 seconds at 57.3° C., and 1 min at 72° C. A final extension was performed at 72° C. for 5 min prior to gel analysis.
(§5) To further test this possibility, three cell types, NHEK, NS-SV-AC (an SV40 immortalized cell line derived from human submandibular acinar cells) and OC2 cells (derived from an oral squamous cell carcinoma) were treated with 100 uM EGCG for different times. A semi-quantitative estimate of SS-A/Ro and SS-B/La mRNA levels was then obtained by RT-PCR during the exponential period of amplification. GAPDH was used as a housekeeping gene control.

NS-SV-AC cells [2] = test: as above; details: 100 uM EGCG, different times
Experimental: as §1, §2, §3, §4, §5

OSC2 cells = test: as above; details: 100 uM EGCG
Experimental: as §2, §3, §4, §5

NHEK [3] = test: Western analysis of autoantigen protein levels; details: 100 uM
Experimental: (§6) Western blot. Cells were washed in ice-cold PBS and lysed for 20 min in RIPA buffer containing 1% (v/v) Nonidet P-40, 0.5% (w/v) sodium deoxycholate, 0.1% (w/v) SDS, 10 μg/ml leupeptin, 3 μg/ml aprotinin and 100 mM phenylmethylsulfonyl fluoride (PMSF). Samples of lysates containing the same amount of protein were loaded in each lane (we used 5-30μg, depending on the antibody used) and electrophoretically separated on a 12% SDS polyacrylamide gel. Following electrophoresis, proteins were transferred to a PVDF membrane (Immobilon™-P, Millipore Corporation, Bedford, Mass.). The membrane was blocked for 1 h with 5% (w/v) non-fat dry milk powder in PBST (0.1% Tween-20 in PBS) and then incubated for 1 h with primary antibody diluted in PBST/milk (Antibodies and dilutions: rabbit polyclonal JNK1/2, […], mouse monoclonal pJNK1/2, 1:1000, rabbit polyclonal ERK, 1:2000, rabbit polyclonal p38, 1:1000, rabbit polyclonal pp 38, 1:1000 and goat polyclonal actin, 1:2000). The membrane was washed three times with PBST and incubated with peroxidase-conjugated, affinity-purified anti-rabbit IgG (Santa Cruz Biotechnology, Inc.) for 1 h. Following extensive washing, the reaction was developed by enhanced chemiluminescent staining using ECL Western blotting detection reagents (Amersham Pharmacia Biotech Inc., Piscataway, N.J.).
(§7) To extend the mRNA data, the protein levels of 6 different autoantigens in NHEK and NS-SV-AC cells were determined by Western analysis following two treatments with 100 uM EGCSG at 24 and 48 hrs.

NS-SV-AC cells [4] = test: Western analysis of autoantigen protein levels; details: 100 uM
Experimental: as §6, §7

NS-SV-AC cells [5] = test: TNF-α-induced cytotoxicity, MTT assay; details: dose-dependent; 100 ng/ml TNFα, 24 hr; p<0.05
Experimental: TNF-α cyotoxicity: NS-SV-AC cells (0.5×10<4> cells/well) were seeded in a 96-well microplate and either treated for 24 hr with EGCC as described above (or not treated in the control), in the presence of 100 ng/ml TNFα and 10 μg/ml cyclohexamide. After the treatments, viability was determined by the MTT assay. The cells in each well were washed with 200 μl of phosphate-buffered saline (PBS) and incubated with 100 μl of 2% (w/v) MTT in a solution of 0.05 M Tris-HCl (pH 7.6), 0.5 mM MgCl2, 2.5 mM CoCl2 and 0.25 M disodium succinate at 37° C. for 30 min. Cells were fixed by the addition of 100 μl of 4% (v/v) formalin in 0.2 M Tris-HCl (pH 7.6), and after a 5 min incubation at room temperature liquid was removed and the wells were allowed to dry. Each well was rinsed with 200 μl water and cells were solubilized by the addition of 100 μl of 6.35% (v/v) 0.1 N NaOH in DMSO. The colored formazan product was measured by a Thermo MAX micro plate reader (Molecular Devices Corp. Sunnyvale, Calif.) at a wavelength of 562 nm.
We examined the effects of EGCG on TNF-α-induced cytotoxicity of the human salivary gland acinar cell line NS-SV-AC using the MTT assay.
To examine the role of activation of the p38 signaling pathway in reducing TNF-α-induced cytotoxicity, cells were exposed to TNF-[alpha] and EGCG in the presence of either the p38 MAPK inhibitor SB203580 or the MEK inhibitor PD98059.

NS-SV-AC cells [6] = test: Western blot of p38, ERK and JNK phosphorylation
Experimental: as §6
p38 activation is one mechanism by which GTPs attenuates mechanisms of SS pathogenesis. […] Therefore, of these three signaling pathways, EGCG activates primarily p38 in NS-SV-AC cells.

With O=C(O[C@@H]1Cc2c(O)cc(O)cc2O[C@@H]1c1cc(O)c(O)c(O)c1)c1cc(O)c(O)c(O)c1 [EGCG, (−)-epigallocatechin-3-gallate] the “SS-B/La mRNA level” value (NHEK [1]) was “decreased progressively and substantially”, the “SS-B/La mRNA level” value (NS-SV-AC cells [2]) was “decreased progressively and substantially” and the “SS-A/Ro mRNA level” value (OSC2 cells) was “showed little change”. For the same molecule, the “reduction in SS-B/La mRNA” value (OSC2 cells) was “less pronounced and did not occur until 24 hrs of exposure”, the PARP protein level (NHEK [3]; 24 hrs) was “significantly reduced” and the “SS-A/Ro 52 protein level” value (NHEK [3]; 24 hrs) was “Neither SS-A/Ro 52 nor SS-B/La were significantly reduced”. For the same molecule, the SS-B/La protein level (NHEK [3]; 24 hrs) was “Neither SS-A/Ro 52 nor SS-B/La were significantly reduced”, the coilin protein level (NHEK [3]; 24 hrs) was “significantly reduced” and the Golgin-67 protein level (NHEK [3]; 48 hrs) was “the reduction was not as marked and was only observed at 48 hrs”. The PARP protein level (NHEK [3]; 48 hrs) was “barely detectable”, the “SS-A/Ro 52 protein level” value (NHEK [3]; 48 hrs) was “considerably reduced” and the SS-B/La protein level (NHEK [3]; 48 hrs) was “considerably reduced”. For the same molecule, the coilin protein level (NHEK [3]; 48 hrs) was “barely detectable”, the Golgin-67 protein level (NS-SV-AC cells [4]; 24 hrs) was “reduced” and the PARP protein level (NS-SV-AC cells [4]; 24 hrs) was “significantly reduced”. The “SS-A/Ro 52 protein level” value (NS-SV-AC cells [4]; 24 hrs) was “Neither SS-A/Ro 52 nor SS-B/La were significantly reduced”, the SS-B/La protein level (NS-SV-AC cells [4]; 24 hrs) was “Neither SS-A/Ro 52 nor SS-B/La were significantly reduced” and the coilin protein level (NS-SV-AC cells [4]; 24 hrs) was “significantly reduced”. The Golgin-67 protein level (NS-SV-AC cells [4]; 48 hrs) was “barely detectable”, the PARP protein level (NS-SV-AC cells [4]; 48 hrs) was “barely detectable” and the “SS-A/Ro 52 protein level” value (NS-SV-AC cells [4]; 48 hrs) was “considerably reduced”. For the same molecule, the SS-B/La protein level (NS-SV-AC cells [4]; 48 hrs) was “considerably reduced”, the coilin protein level (NS-SV-AC cells [4]; 48 hrs) was “barely detectable” and the “protection from TNFα-induced cytotoxicity” value (NS-SV-AC cells [5]) was “up to 50%”. For the same molecule, the pERK (NS-SV-AC cells [6]) was “only a slight increase”, the “phosphorylation of JNK” value (NS-SV-AC cells [6]) was “not altered” and the “phosphorylation of p38” value (NS-SV-AC cells [6]) was “rapid and sustained phosphorylation”. The “time to p38 phosphorylation” value (NS-SV-AC cells [6]) was at most 30 min.
